Test results published in the NIST ThermoML archive (doi:10.1007/s10765-006-0088-4).
Numbers after ± are expanded uncertainties.

Details: Liquid; for vapor or sublimation pressure: Closed cell (Static) method

CCC [propane]
Details | vapor or sublimation pressure [kPa]
280 K | 583.1 ± 1.2
300 K | 999 ± 2.1
320 K | 1599.8 ± 3.3
340 K | 2432.2 ± 5
360 K | 3556.3 ± 7.2
365 K | 3894.1 ± 7.9
367 K | 4036.8 ± 8.2
369 K | 4184.4 ± 8.5

mass density [kg/m3]
Details | 340 K | 360 K | 380 K | 400 K
3000 kPa, Vibrating tube method | 418.08 ± 0.51 | – | – | –
5000 kPa, Vibrating tube method | 433.15 ± 0.54 | 380.52 ± 0.48 | – | –
10000 kPa, Buoyancy - hydrostatic balance with magnetic suspension - two sinkers | 457.22 ± 0.51 | 423.91 ± 0.47 | 383.94 ± 0.42 | 334.82 ± 0.37
20000 kPa, Buoyancy - hydrostatic balance with magnetic suspension - one sinker | 486.49 ± 0.54 | 463.18 ± 0.52 | 438.11 ± 0.49 | 412.17 ± 0.46
30000 kPa, Buoyancy - hydrostatic balance with magnetic suspension - one sinker | 506.41 ± 0.56 | 486.97 ± 0.55 | 466.65 ± 0.53 | 446.42 ± 0.51
40000 kPa, Bellows volumetry | 521.92 ± 0.58 | 504.75 ± 0.56 | 486.9 ± 0.54 | 469.52 ± 0.52
50000 kPa, Bellows volumetry | 534.58 ± 0.6 | 519.13 ± 0.59 | 502.92 ± 0.57 | 487.17 ± 0.56
60000 kPa, Bellows volumetry | 545.76 ± 0.61 | 531.24 ± 0.6 | 516.27 ± 0.59 | 501.88 ± 0.58
70000 kPa, Bellows volumetry | 555.4 ± 0.62 | 541.74 ± 0.61 | 527.68 ± 0.6 | 514.4 ± 0.59
80000 kPa, Bellows volumetry | 564.13 ± 0.63 | 551.28 ± 0.62 | 537.77 ± 0.61 | 525.29 ± 0.6
90000 kPa, Bellows volumetry | 571.96 ± 0.64 | 559.54 ± 0.63 | 546.83 ± 0.62 | 534.99 ± 0.61
100000 kPa, Bellows volumetry | 579.21 ± 0.65 | 567.52 ± 0.64 | 555.08 ± 0.63 | 543.68 ± 0.62
120000 kPa, Bellows volumetry | 592 ± 0.67 | 581.13 ± 0.66 | 569.69 ± 0.65 | 559.13 ± 0.64
140000 kPa, Bellows volumetry | 603.23 ± 0.68 | 593.24 ± 0.67 | 582.4 ± 0.66 | 572.43 ± 0.65
160000 kPa, Bellows volumetry | 613.42 ± 0.74 | 603.94 ± 0.74 | 593.57 ± 0.74 | 584.27 ± 0.74
180000 kPa, Bellows volumetry | 622.47 ± 0.76 | 613.6 ± 0.75 | 603.76 ± 0.75 | 594.86 ± 0.75
200000 kPa, Bellows volumetry | 631.34 ± 0.78 | 622.28 ± 0.76 | 612.75 ± 0.77 | 604.47 ± 0.77
